Each cell line was assayed with Cc1cnc(Nc2ccc(OCCN3CCCC3)cc2)nc1Nc1cccc(S(=O)(=O)NC(C)(C)C)c1 [Fedratinib] + Cc1nc(NC(=O)N2CCC[C@H]2C(N)=O)sc1-c1ccnc(C(C)(C)C(F)(F)F)c1 [Alpelisib] (partner 2 µM) (assay: relative viability (nuclei count vs DMSO), 5 days (fraction); higher = more cells survive). Details: first compound 0.1 µM.
Method in brief: (§1)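 Relative viability equals treated-well nuclei counts divided by vehicle-well nuclei counts. Counts came from 4× images of lung cancer cell lines grown in 1536-well plates for 5 days after pin-tool dosing on the day after seeding. Dosing used one drug alone or a fixed anchor-drug dose plus five library-drug doses (not always all listed) in √10 steps, and values are medians of duplicate plates.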

| Cell Line | relative viability |
| --- | --- |
| NCI-H2126 | 0.745 |
| EMC-BAC-2 | 0.85 |
| NCI-H2085 | 0.977 |
| Calu-6 | 0.915 |
| HCC-366 | 0.273 |
| NCI-H1666 | 0.872 |
| NCI-H596 | 0.459 |
| NCI-H2087 | 1.03 |
| SK-MES-1 | 0.909 |
| H3255 | 0.458 |
| COR-L23 | 0.752 |
| IA-LM | 0.563 |
| HCC-44 | 0.759 |
| A549 | 0.74 |
| NCI-H661 | 0.835 |
| NCI-H1299 | 1.08 |
| CAL-12T | 1.13 |
| NCI-H2228 | 0.59 |
| NCI-H1792 | 0.458 |
| NCI-H1563 | 0.853 |
| ABC-1 | 0.979 |
| NCI-H358 | 0.773 |

Same assay, conditions: first compound 0.3162 µM

| Cell Line | relative viability |
| --- | --- |
| NCI-H727 | 0.609 |
| EBC-1 | 0.808 |
| NCI-H1703 | 0.361 |
| NCI-H1993 | 0.755 |
| SW 1573 | 0.867 |
| NCI-H838 | 0.954 |
| LCLC-103H | 0.816 |
| NCI-H520 | 0.845 |
| NCI-H2126 | 0.719 |
| EMC-BAC-2 | 0.754 |
| NCI-H2085 | 0.963 |
| Calu-6 | 0.906 |
| HCC-366 | 0.458 |
| NCI-H1666 | 1.05 |
| NCI-H596 | 0.576 |
| LK-2 | 0.936 |

| Cell Line | relative viability |
| --- | --- |
| NCI-H2087 | 1.05 |
| SK-MES-1 | 0.829 |
| H3255 | 0.715 |
| COR-L23 | 0.74 |
| IA-LM | 0.758 |
| HCC-44 | 0.771 |
| A549 | 0.691 |
| NCI-H661 | 0.452 |
| NCI-H1299 | 1.07 |
| CAL-12T | 1.16 |
| NCI-H2228 | 0.842 |
| NCI-H1792 | 0.662 |
| NCI-H1563 | 0.909 |
| ABC-1 | 0.994 |
| NCI-H358 | 0.768 |
| NCI-H650 | 1.03 |

Same assay, conditions: first compound 1 µM

| Cell Line | relative viability |
| --- | --- |
| NCI-H727 | 0.532 |
| EBC-1 | 0.592 |
| NCI-H1703 | 0.25 |
| NCI-H1993 | 0.65 |
| SW 1573 | 0.703 |
| NCI-H838 | 0.954 |
| LCLC-103H | 0.938 |
| NCI-H520 | 0.805 |
| NCI-H2126 | 0.786 |
| EMC-BAC-2 | 0.711 |
| NCI-H2085 | 0.922 |
| Calu-6 | 0.801 |
| HCC-366 | 0.356 |
| NCI-H1666 | 1.02 |
| NCI-H596 | 0.506 |
| LK-2 | 0.936 |

| Cell Line | relative viability |
| --- | --- |
| NCI-H2087 | 0.963 |
| SK-MES-1 | 0.809 |
| H3255 | 0.652 |
| COR-L23 | 0.778 |
| IA-LM | 0.658 |
| HCC-44 | 0.801 |
| A549 | 0.622 |
| NCI-H661 | 0.629 |
| NCI-H1299 | 1.05 |
| CAL-12T | 1.06 |
| NCI-H2228 | 0.747 |
| NCI-H1792 | 0.666 |
| NCI-H1563 | 0.916 |
| ABC-1 | 1.12 |
| NCI-H358 | 0.466 |
| NCI-H650 | 0.865 |

Each cell line was assayed with COC1=CC=C(C=C1)COC2=C(C=C(C=C2)CC3=CN=C(N=C3N)N)OC [GW-2580] + CC1(C)CCC(c2ccc(Cl)cc2)=C(CN2CCN(c3ccc(C(=O)NS(=O)(=O)c4ccc(N[C@H](CCN5CCOCC5)CSc5ccccc5)c(S(=O)(=O)C(F)(F)F)c4)cc3)CC2)C1 [Navitoclax] (partner 0.5 µM) in the same assay as above. Details: first compound 0.08 µM.
Method in brief: as §1

| Cell Line | relative viability |
| --- | --- |
| NCI-H727 | 0.454 |
| NCI-H1650 | 1.31 |
| EBC-1 | 0.418 |
| NCI-H1703 | 1.11 |
| NCI-H1993 | 0.932 |
| SW 1573 | 1 |
| NCI-H838 | 1.09 |
| NCI-H520 | 1.18 |
| NCI-H2126 | 0.915 |
| EMC-BAC-2 | 1.18 |
| NCI-H2085 | 1.09 |
| Calu-6 | 0.932 |
| HCC-366 | 1.27 |
| NCI-H1666 | 0.946 |
| NCI-H596 | 1.05 |
| LK-2 | 0.983 |
| NCI-H2087 | 0.956 |
| SK-MES-1 | 1.4 |
| H3255 | 0.5 |
| COR-L23 | 1.32 |
| IA-LM | 0.895 |
| ChaGo-K-1 | 1.04 |
| HCC-44 | 1.09 |
| A549 | 1.38 |
| NCI-H1299 | 1.09 |
| CAL-12T | 1.27 |
| NCI-H2228 | 1.01 |
| NCI-H1792 | 0.534 |

Same assay, conditions: first compound 0.8 µM

| Cell Line | relative viability |
| --- | --- |
| NCI-H727 | 0.538 |
| NCI-H1650 | 1.26 |
| EBC-1 | 0.37 |
| NCI-H1703 | 1.15 |
| NCI-H1993 | 1.14 |
| SW 1573 | 1.04 |
| NCI-H838 | 1.2 |
| NCI-H520 | 1.3 |
| NCI-H2126 | 0.875 |
| EMC-BAC-2 | 1.39 |
| NCI-H2085 | 1.11 |
| Calu-6 | 0.868 |
| HCC-366 | 1.17 |
| NCI-H1666 | 1.1 |
| NCI-H596 | 0.982 |
| LK-2 | 1.09 |
| NCI-H2087 | 1.16 |
| SK-MES-1 | 1.18 |
| H3255 | 0.633 |
| COR-L23 | 1.17 |
| IA-LM | 0.88 |
| ChaGo-K-1 | 1.34 |
| HCC-44 | 1.03 |
| A549 | 1.25 |
| NCI-H1299 | 1.06 |
| NCI-H2228 | 0.84 |
| NCI-H1792 | 0.816 |

Same assay, conditions: first compound 2.53 µM

| Cell Line | relative viability |
| --- | --- |
| NCI-H727 | 0.402 |
| NCI-H1650 | 1.1 |
| EBC-1 | 0.369 |
| NCI-H1703 | 1.1 |
| SW 1573 | 0.869 |
| NCI-H838 | 1.03 |
| NCI-H520 | 1.45 |
| NCI-H2126 | 0.808 |
| EMC-BAC-2 | 1.07 |
| NCI-H2085 | 1.03 |
| Calu-6 | 0.782 |
| HCC-366 | 1.13 |
| NCI-H1666 | 0.856 |
| NCI-H596 | 0.94 |
| LK-2 | 0.616 |
| NCI-H2087 | 0.886 |
| SK-MES-1 | 1.1 |
| H3255 | 0.4 |
| COR-L23 | 1.14 |
| IA-LM | 0.723 |
| ChaGo-K-1 | 0.926 |
| HCC-44 | 0.97 |
| A549 | 1.12 |
| NCI-H1299 | 1.06 |
| CAL-12T | 1.22 |
| NCI-H2228 | 0.869 |
| NCI-H1792 | 0.26 |

Same assay, conditions: first compound 8 µM

| Cell Line | relative viability |
| --- | --- |
| NCI-H727 | 0.384 |
| NCI-H1650 | 1.13 |
| EBC-1 | 0.37 |
| NCI-H1703 | 1.06 |
| NCI-H1993 | 0.948 |
| SW 1573 | 0.929 |
| NCI-H838 | 1.36 |
| NCI-H520 | 1.25 |
| NCI-H2126 | 0.921 |
| EMC-BAC-2 | 1.2 |
| NCI-H2085 | 1.07 |
| Calu-6 | 0.877 |
| HCC-366 | 1.11 |
| NCI-H1666 | 0.69 |
| NCI-H596 | 0.9 |
| LK-2 | 1.03 |
| NCI-H2087 | 0.88 |
| SK-MES-1 | 1.33 |
| H3255 | 0.452 |
| COR-L23 | 1.11 |
| IA-LM | 0.782 |
| ChaGo-K-1 | 1.01 |
| HCC-44 | 0.897 |
| A549 | 0.918 |
| NCI-H1299 | 0.97 |
| CAL-12T | 1.34 |
| NCI-H2228 | 0.723 |
| NCI-H1792 | 0.668 |

These cell lines were tested with Cc1cnc(Nc2ccc(OCCN3CCCC3)cc2)nc1Nc1cccc(S(=O)(=O)NC(C)(C)C)c1 [Fedratinib] + Nc1nc2[nH]cc(CCc3ccc(C(=O)N[C@@H](CCC(=O)O)C(=O)O)cc3)c2c(=O)[nH]1 [Pemetrexed] (partner 0.2 µM) in the same assay as above. Details: first compound 0.1 µM.
Method in brief: as §1

| Cell Line | relative viability |
| --- | --- |
| NCI-H2342 | 0.801 |
| NCI-H1650 | 0.292 |
| NCI-H1993 | 0.523 |
| SW 1573 | 0.753 |
| NCI-H838 | 0.236 |
| LCLC-103H | 0.487 |
| NCI-H520 | 0.804 |
| NCI-H2126 | 0.592 |
| EMC-BAC-2 | 0.425 |
| NCI-H2085 | 0.88 |
| HCC-366 | 0.154 |
| NCI-H1666 | 0.793 |
| NCI-H596 | 0.511 |
| LK-2 | 0.171 |
| NCI-H2087 | 0.739 |
| NCI-H1648 | 0.598 |
| SK-MES-1 | 1.01 |
| H3255 | 0.531 |
| COR-L23 | 0.177 |
| ChaGo-K-1 | 0.273 |
| HCC-44 | 0.646 |
| NCI-H522 | 0.767 |
| SW 900 | 0.466 |
| NCI-H661 | 0.939 |
| CAL-12T | 1.02 |
| NCI-H2228 | 0.331 |
| NCI-H1792 | 0.784 |
| NCI-H1563 | 0.737 |
| NCI-H358 | 0.175 |
| NCI-H650 | 0.866 |

Same assay, conditions: first compound 0.3162 µM

| Cell Line | relative viability |
| --- | --- |
| NCI-H2342 | 0.765 |
| NCI-H1650 | 0.312 |
| NCI-H1993 | 0.513 |
| SW 1573 | 0.857 |
| NCI-H838 | 0.224 |
| LCLC-103H | 0.521 |
| NCI-H520 | 0.59 |
| NCI-H2126 | 0.657 |
| EMC-BAC-2 | 0.481 |
| NCI-H2085 | 1.06 |
| HCC-366 | 0.168 |
| NCI-H1666 | 0.869 |
| NCI-H596 | 0.511 |
| LK-2 | 0.207 |
| NCI-H2087 | 0.651 |
| NCI-H1648 | 0.675 |
| SK-MES-1 | 0.947 |
| H3255 | 0.559 |
| COR-L23 | 0.218 |
| ChaGo-K-1 | 0.254 |
| HCC-44 | 0.638 |
| NCI-H522 | 0.951 |
| SW 900 | 0.525 |
| NCI-H661 | 0.928 |
| CAL-12T | 1.2 |
| NCI-H2228 | 0.284 |
| NCI-H1792 | 0.67 |
| NCI-H1563 | 0.624 |
| NCI-H358 | 0.155 |
| NCI-H650 | 0.887 |

Same assay, conditions: first compound 1 µM

| Cell Line | relative viability |
| --- | --- |
| NCI-H2342 | 0.775 |
| NCI-H1650 | 0.37 |
| NCI-H1993 | 0.589 |
| SW 1573 | 0.673 |
| NCI-H838 | 0.225 |
| LCLC-103H | 0.469 |
| NCI-H520 | 0.436 |
| NCI-H2126 | 0.626 |
| EMC-BAC-2 | 0.39 |
| NCI-H2085 | 0.805 |
| HCC-366 | 0.142 |
| NCI-H1666 | 0.831 |
| NCI-H596 | 0.426 |
| LK-2 | 0.233 |
| NCI-H2087 | 0.731 |
| NCI-H1648 | 0.328 |
| SK-MES-1 | 0.811 |
| H3255 | 0.563 |
| COR-L23 | 0.184 |
| ChaGo-K-1 | 0.253 |
| HCC-44 | 0.68 |
| NCI-H522 | 0.902 |
| SW 900 | 0.444 |
| NCI-H661 | 0.883 |
| CAL-12T | 1.31 |
| NCI-H2228 | 0.294 |
| NCI-H1792 | 0.597 |
| NCI-H1563 | 0.824 |
| NCI-H358 | 0.156 |
| NCI-H650 | 0.835 |
